Results published in paper PMC12095788 (Communications Chemistry, 2025).

Molecular target: T1, Nurr1 LBD homodimer (Homo sapiens, UniProt P43354)
T1 construct: a plasmid construct encoding Nurr1 (aa 364-598) in a pMal vector system; sGFP-Nurr1 LBD protein and sGFP-RXRα LBD[26] were titrated against a fixed concentration of Tb-SA conjugated Nurr1 LBD protein; MBP (cleaved yes); made in house; host or cells: E.coli BL21-R3-pRARE2 (biotinylated Nurr1 LBD)
Experiment: HTRF Nurr1 homodimer formation assay
Type: biochemical

T1 sequence (P43354 364-598 limits assumed): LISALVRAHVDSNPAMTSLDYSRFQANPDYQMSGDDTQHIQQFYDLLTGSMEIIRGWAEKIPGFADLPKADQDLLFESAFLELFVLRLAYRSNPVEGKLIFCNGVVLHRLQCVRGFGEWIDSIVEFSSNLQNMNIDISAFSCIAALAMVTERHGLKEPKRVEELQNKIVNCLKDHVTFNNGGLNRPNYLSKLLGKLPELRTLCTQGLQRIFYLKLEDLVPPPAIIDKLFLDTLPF

O=C(O)C1=C(C(=O)Nc2ccc(-c3ccccc3OCc3ccccc3)cc2F)CCC1 [compound 1, 2-{[2’-(Benzyloxy)-3-fluoro-[1,1’-biphenyl]-4-yl]carbamoyl}cyclopent-1-ene-1-carboxylic acid]
effect on Nurr1 homodimerization: markedly disrupted
